# Columns and labels:
# [1] = as compared to L-DOPA; cited from earlier work
# [2] = test system: patients with PA disease; conditions: cited from earlier work
# [3] = test system: PA disease patient with pure akinesia and chief complaint of freezing of gait, not responsive to L-DOPA preparation; experiment: Example 3: treatment of a PA disease patient with pure akinesia and freezing of gait, not responsive to L-DOPA preparation; type: in vivo, human; conditions: person, DOPS 600 mg/day in 3 portions
# Source text: A combined use of DOPS and a COMT inhibitor was effective for the “freezing of gait symptom” for which L-DOPA preparation is not effective.
# [4] = biological target: T1, aromatic amino acid decarboxylase (AADC) (Homo sapiens, UniProt P20711); conditions: as compared to L-DOPA; cited from earlier work
# T1 sequence (P20711 1-480): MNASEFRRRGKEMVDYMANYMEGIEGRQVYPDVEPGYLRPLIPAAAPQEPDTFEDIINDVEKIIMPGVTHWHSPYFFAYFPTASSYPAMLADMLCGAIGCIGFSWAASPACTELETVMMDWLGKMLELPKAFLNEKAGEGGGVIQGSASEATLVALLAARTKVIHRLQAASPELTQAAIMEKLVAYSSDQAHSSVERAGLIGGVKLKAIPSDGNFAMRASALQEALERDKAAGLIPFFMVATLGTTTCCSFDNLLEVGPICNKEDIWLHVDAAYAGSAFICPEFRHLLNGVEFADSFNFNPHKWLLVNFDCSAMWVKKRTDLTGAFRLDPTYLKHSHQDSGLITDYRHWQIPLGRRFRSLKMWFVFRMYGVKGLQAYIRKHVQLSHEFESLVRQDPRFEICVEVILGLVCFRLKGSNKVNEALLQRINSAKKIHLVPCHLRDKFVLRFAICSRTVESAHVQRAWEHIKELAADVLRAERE
# [5] = test system: PA disease patient with pure akinesia and chief complaint of freezing of gait; experiment: Example 2: treatment of a PA disease patient with pure akinesia and chief complaint of freezing of gait; type: in vivo, human; conditions: person; DOPS 300 mg/day in 3 portions
# Method: Treatment effect of therapeutic agent of the present invention for PA disease patient with pure akinesia and chief complaint of freezing of gait A PA disease patient with pure akinesia and chief complaint of freezing of gait: person. a) DOPS (300 mg/day) was administered in 3 portions, but ineffective. b) DOPS (300 mg/day) and Comtan® (300 mg/day) as a COMT inhibitor were simultaneously administered in 3 portions each. […] Combined use of DOPS and Comtan® (COMT inhibitor) was effective even in a treatment without using an L-DOPA preparation and a dopamine receptor stimulator.
smiles,measurement,setting,value
"N[C@H](C(=O)O)[C@H](O)c1ccc(O)c(O)c1 [DOPS, L-threo-3,4-dihydroxy-phenylserine]",transferability into the brain,[1],low
same,clinical trial results versus placebo,"[2]; double-blind comparison, DOPS in optically active form",significantly superior to that of placebo
same,efficacy rate,[2]; in vivo,not necessarily high
same,effect on freezing of gait,[3],slight improvement effect
same,decarboxylation reaction rate,[4],low
same,effect on freezing of gait,[5],ineffective
